# Results: patent publication US7375203B2, “Canine cold- and menthol-sensitive receptor 1” (Janssen Pharmaceutica N.V., priority 2004, dated 2008)
# “Also recorded” adds a separate entry of the source.
# Tests used:
# cCMR1 channel = assay: Whole-cell patch clamp recording of HEK293 cells stably transfected with cCMR1; assay type: cell-based, canine
# Protocol: HEK293 cells stably transfected with canine cCMR1 were cultured in DMEM supplemented with 10% fetal bovine serum, 100 units/ml penicillin, 100 μg/ml streptomycin and 1 mg/ml G418. Cells were maintained at 37° C. and in 5% CO2. Unless otherwise indicated, the standard extracellular solution used for recording contained (in mM): NaCl, 132; EGTA, 1; KCl, 5.4; MgCl2, 0.8; HEPES, 10; glucose, 10; pH=7.4. In experiments where the extracellular solution contained Ca^2+, the extracellular solution used was one of the following (in mM), depending on the Ca^2+ concentration used: (1) NaCl, 132; CaCl2, 0.1 or 1.8; KCl, 5.4; MgCl2, 0.8; HEPES, 10; glucose, 10; pH=7.4; (2) NaCl, 116; CaCl2, 10; KCl, 5.4; MgCl2, 0.8; HEPES, 10; glucose, 10; pH=7.4. The intracellular solution used to fill recording pipettes contained (in mM): CsCl, 145; EGTA, 5; HEPES, 10; glucose, 5; pH=7.4. Recordings were performed using the conventional whole-cell patch clamp technique, 1-2 days after plating cells onto glass coverslips at densities appropriate for single cell recording. Currents were amplified by a patch clamp amplifier and filtered at 2 kHz (Axopatch 200B, Axon Instruments). […] Recordings involving agonist stimulations were performed at 22° C. In experiments where temperatures were varied, temperature ramps were generated by heating/cooling the perfusate in a dual in-line heater/cooler (Model SC-20, Warner Instruments, Hamden, Conn.) controlled by a bipolar temperature controller (Model CL-100, Warner Instruments). The temperature in the vicinity of the recorded cell was measured with a custom-made miniature thermo-microprobe connected to a monitoring thermometer (Model TH-8, Physitemp, Clifton, N.J.), and sampled using Digidata 1322A and pClamp 9.0 (Axon Instruments, Union City, Calif.), as were the currents concurrently measured in the whole-cell patch clamp mode. Two voltage protocols were used in these studies. The first involved a 600 ms voltage ramp from −100 mV to +60 mV at a sampling rate of 10 kHz. This voltage pulse was repeated once every 5 seconds. The cell was held at −100 mV between voltage pulses. In the second protocol, the cell was held at −80 mV and the current was continuously sampled (at 100 Hz) at this holding potential.
# canine CMR1 (cCMR1) = assay: Cell-based calcium influx (FLIPR) assay on HEK293 cells stably transfected with cCMR1; conditions: for calcium-mediated fluorescence (calcium influx): added at 200 seconds, room temperature
# Protocol: The following day, the cells were loaded with buffer and calcium dye (Molecular Devices, Sunnyvale, Calif.) in a final volume of 40 μl and incubated for 30 minutes at room temperature. The fluorescence intensity was measured by FLIPR before and after the addition of menthol or icilin, which were added to the cells at a concentration of 100 μM or 10 μM each, respectively.
# HEK293 cells stably transfected with cCMR1 were seeded in a 384 will plate at a concentration of […] and incubated overnight at 37° C./5% CO2. The following day the cells were loaded with calcium dye and incubated for 30 minutes at room temperature. The calcium-mediated fluorescence intensity was measured by FLIPR before and after the compound was administered to the cells.
compound,measurement,setting,value
[Ca+2] [extracellular Ca^2+],desensitization of menthol-activated cCMR1 current,"cCMR1 channel; 1.8 mM extracellular Ca^2+, 100 μM menthol, −80 mV",desensitization readily occurred
same,voltage dependence of inhibition of cCMR1 current amplitude,"cCMR1 channel; 10 mM extracellular Ca^2+, channel activated by 1 mM menthol",strongly inhibited the current amplitude at hyperpolarized potentials
same,IC50,"cCMR1 channel; voltage-clamped at −80 mV, channel activated by 1 mM menthol, logistic best fit, read-out: IC50 of inhibition of cCMR1 current amplitude by extracellular Ca^2+",1600 µM
C=CCN=C=S [mustard oil],calcium-mediated fluorescence (activation of cCMR1),canine CMR1 (cCMR1); 1 mM mustard oil,activated; also recorded: increase in calcium-mediated fluorescence
O=C1NC(c2cccc([N+](=O)[O-])c2)=CCN1c1ccccc1O [icilin],calcium-mediated fluorescence (activation of cCMR1),canine CMR1 (cCMR1); 100 nM icilin (positive control),sensitive; also recorded: increase in calcium-mediated fluorescence
same,calcium-mediated fluorescence (calcium influx),canine CMR1 (cCMR1); 10 μM icilin,increase in calcium-mediated fluorescence
same,"whole-cell current amplitude, rectification and reversal potential","cCMR1 channel; icilin (1 μM), voltage ramp protocol, compared with the menthol results",Qualitatively similar results
CC1CCC(C(C)C)C(O)C1 (centres unmarked) [menthol],calcium-mediated fluorescence (calcium influx),canine CMR1 (cCMR1); 100 μM (−)-menthol,increase in calcium-mediated fluorescence
same,reversal potential of the menthol-activated current,"cCMR1 channel; 100 μM menthol, voltage ramp protocol",~0 mV
same,whole-cell current amplitude,"cCMR1 channel; 100 μM menthol, voltage ramp −100 mV to +60 mV, 22° C., compared to buffer control",large increase of the whole-cell current amplitude
same,current activated in the absence of extracellular Ca^2+,"cCMR1 channel; 100 μM menthol, −80 mV, no extracellular Ca^2+",activated a non-desensitizing current
